Experimental data reported in US7067486B2, “Acetylcholinesterase-derived peptides and uses thereof” (priority 1999, dated 2006).
Marks after values point to notes of the source that are not given here.

Key:
[1] = tested on: developing mouse brain; experiment: BrdU labeling in developing brain after injection of pregnant mouse; assay type: in vivo; settings: peptide 0.1 mg/Kg into pregnant mouse; BrdU 24 hr later
From the text: After 1 hr the embryo was isolated and fixed.
Embryonic neuroepithelial cells have one of two fates: (1) to continue proliferation and migration up and down from the ventricular zone up to the cortical plate, or (2) to quit the proliferative cycle and initiate terminal differentiation. The balance between these two processes determines the number of proliferating neuronal progenitors as well as the thickness of the cortical plate where post-mitotic neurons accumulate (see scheme at FIG. 10).

[2] = tested on: CD34^+ cells; experiment: Cell phenotyping of CD34+ liquid cultures by flow cytometry (CD34, CD33, CD15, CD41); assay type: cell-based, human; settings: day 14; seeded at 50,000 cells/well; ARP 2 nM, cortisol 1.2 μM, ASP 2 nM, SCF 50 ng/ml, AS1 20 pM, PBAN 2 nM
From the text: Cell Source: UCB was collected, following informed consent of the parents and with the approval of the Sourasky Medical Center Ethics Committee, as previously described [Grisaru et al. (1999a) Am. J. Obstet. Gynecol, 180, 1240–1243]. Following 1:1 (v/v) dilution in Iscove's modified Dulbecco medium (IMDM, Beit Haemek, Israel), mononuclear cells were separated using 3% gelatin (Difco, Detroit, Mich.) and Ficoll-Hypaque gradients (<1.077 g/ml; Pharmacia, Uppsala, Sweden) [Pick et al. (1998) Br. J. Haematol. 103, 639–50]. CD34^+ cells were enriched using CD34 immunoglobulin-coated magnetic beads (CD34 progenitor cell selection system, Dynal, Norway).CD34^+ cells analysis was performed by flow cytometry (Becton Dickinson Immunocytochemistry System Inc., San Jose, Calif.), using CD34-PE (Becton Dickinson Immunocytometry System, Inc.) and CD45-FITC (Dako, Glostrup, Denmark) monoclonal antibodies. […] Liquid Cultures: UCB CD34^+ cells were set for liquid cultures at a concentration of 10^5/mL in IMDM, containing 10% autologous plasma, 2 mM L-glutamine (Sigma Chemical Co., St Louis, Mo.), penicillin ([…]), streptomycin ([…]), amphotericin B (2×10^−5 M) (Sigma Chemical Co.), and heparin (20 IU/mL, Gibco, Grand Island, N.Y.), all in a fully humidified atmosphere at 37° C. and 5% CO2. The following elements were added where noted: • 1. […] Endothlial Growth factors: Epidermal growth factor (EGF 10 ng/ml, Sigma Chemical Co.), basic Fibroblast growth factor (bFGF 20 ng/ml, Sigma Chemical Co.) incubated in a serum free medium (SFM) for 48 hr. • 3. Stress mimicking conditions: Hydrocortisone sodium succinate (Abic Ltd., Netanya, Israel) at concentrations equivalent to normal, intermediate and stress serum cortisol levels (0.1, 0.6 and 1.2 μM, respectively (De Vroede et al., Arch. Des. […] Antisense oligonucleotides: 3′-terminal 2′-O-Methylated 15- and 20-mer oligodeoxynucleotides in the antisense (AS) orientation, targeted against the common sequence domain in human AChEmRNA and BuChE mRNA, as control, […], as detailed elsewhere [Grisaru et al. (1999b) Mol. Cell. Biol. 19, 788–95]. • 5. AChE C-terminal peptides: The following C-terminal peptides of the AChE synaptic (ASP, also denoted SEQ ID: No. 2) and readthrough (ARP, also denoted SEQ ID: No. 1) isoforms were synthesized using a 433A peptide synthesizer (PE Applied Biosystems, Inc., Norwalk, Conn.). • ASP: 1-[…]-40, also denoted as SEQ ID: No. 2. • ARP: 1-[…]-26, also denoted as SEQ ID: No. 1.
Culture Analyses: Twenty-four hr liquid cultures served for cytochemical staining, in situ hybridization, and cell proliferation assay by 5-bromo-2′-deoxy-Uridine (BrdU) incorporation [Grisaru et al. (1999b) id ibid.]. Twenty-eight day liquid cultures were sampled every 6–8 days for viable cell counting (using trypan blue dye exclusion), cell phenotyping (CD34^+, CD33^+ and CD41^+ quantification using flow cytometry, with CD34-PE, CD33-FITC (Immunotech/Coulter, Hialeah, Fla.), CD41-FITC (Immunoquality Products, Groningen, Netherlands) and CD45-FITC monoclonal antibodies), and growth of progenitor colony (granulocyte-macrophage and megakaryocytic), using previously described techniques (Pick et al. (1998) id ibid.). […] 11, 1049–57]. Nuclear staining w with 4′,6-diamidino-2- phenylindole [DAPI, see e.g., Peterson et al. (1999) Genetics 152, 427–439].

Substance: ASP (DTLDEAERQWKAEFHRWSSYMVHWKNQFDHYSKQDRCSDL)
- neuronal proliferation (BrdU labeled nuclei) in embryonic brain [1]: minor positive effect
- CD33^+ (early myeloids) [2]: 10.0 cells per culture × 10^−3
- CD33^+ and CD15^+ (total myeloids) [2]: 13.0 cells per culture × 10^−3
- CD34^+ (early progenitors) [2]: 7.2 cells per culture × 10^−3
- CD41^+ (megakaryocytes) [2]: 4.6^b cells per culture × 10^−3
